Reference: publication PMC12703733, “Probing Guanidino Pendant or Bridged Groups in Cyclic Antimicrobial Peptides Derived from Temporin L: A Strategy to Improve Efficacy against Gram-Negative Bacteria” (Journal of Medicinal Chemistry, 2025)
Like-named read-outs stand apart in the source and are kept apart here. Bridge positions count the residues as written; N and C are the ends. Square brackets hold non-standard residues; d marks the D form. Peptide text beside a SMILES is read from it. * marks the point of attachment. Phe(4-guanidino) = N=C(N)Nc1ccc(C[C@H](N)C(=O)O)cc1; Propanoyl(3-guanidino) = N=C(N)NCCC(=O)*; X1 = N=C(N)N[C@@H](Cc1ccccc1)C(=O)*

Legend:
circular dichroism = conditions: water; pH ns; 25 °C; 150 uM
[1] = format: cell-based, human; conditions: human; for viability at 2 h, 3.12 µM / viability at 2 h, 6.25 µM / viability at 2 h, 12.5 µM / viability at 2 h, 25 µM / viability at 2 h, 50 µM / viability at 2 h, 100 µM / viability at 24 h, 3.12 µM / viability at 24 h, 6.25 µM / viability at 24 h, 12.5 µM / viability at 24 h, 25 µM / viability at 24 h, 50 µM / viability at 24 h, 100 µM: Cell viability (%)
Procedure: (§1) For the evaluation of peptides’ cytotoxicity, the human immortalized keratinocytes (HaCaT cells), purchased from AddexBio (San Diego, CA, USA), and BEAS-2B were used. HaCaT cells were cultured in Dulbecco’s modified Eagle’s medium supplemented with 4 mM glutamine (DMEM), 10% heat-inactivated fetal bovine serum (FBS), and 0.1 mg/mL of penicillin and streptomycin, at 37 °C and 5% CO2. BEAS-2B cells were cultured in RPMI, supplemented with 2 mM glutamine (DMEM), 10% heat-inactivated fetal bovine serum (FBS), 1 mM sodium pyruvate, and 0.1 mg/mL of penicillin and streptomycin, at 37 °C and 5% CO2. Cytotoxicity was tested in vitro using a colorimetric assay that relies on the intracellular reduction of the yellow 3-(4,5-dimethylthiazol-2-yl)-2,5-diphenyltetrazolium bromide salt (MTT) by mitochondrial dehydrogenases of metabolically active cells in formazan crystals (purple). About 4 × 10^4 HaCaT and BEAS-2B cells, suspended in DMEM supplemented with 2% FBS, were plated in triplicate wells of a 96-well microtiter plate. The plate was incubated overnight at 37 °C and 5% CO2. Then, the cells were treated with different concentrations of the peptide (from 100 to 3.12 μM) in a fresh serum-free medium for 2 h and for a longer time (24 h). Following peptide treatment, the medium was removed, and MTT (0.5 mg/mL) solution in Hank’s buffer (136 mM NaCl, 4.2 mM Na2HPO4, 4.4 mM KH2PO4, 5.4 mM KCl, 4.1 mM NaHCO3, pH 7.2, supplemented with 20 mM D-glucose) was added to each well of the plate, that was then incubated for 4 h at 37 °C and 5% CO2. The purple formazan crystals were dissolved using acidified 2-propanol and a microplate reader (Infinite M200; Tecan, Salzburg, Austria) was used to measure the absorbance of each well at 570 nm. The percentage of cell viability was calculated compared to the control, which consisted of cells without any peptide treatment (corresponding to 100% viability) and all data represent the mean of three independent experiments ± SEM.

A. baumannii ATCC 19606 = test: microbe, parasite or virus in culture; format: cell-based
Procedure: (§2) Bacterial strains used in this study were the Gram-positive S. aureus ATCC 25923, S. epidermidis ATCC 12228, B. megaterium BM11, S. [NT] 27591, E. faecalis ATCC 29212 and the Gram-negative E. coli ATCC 25922, P. aeruginosa ATCC 27853, A. baumannii ATCC 19606, E. coli D21 and P. aeruginosa PAO1. […] Bacterial cells in the mid log phase were diluted in Muller Hinton (MH) at a concentration of 2 × 10^6 cell/mL. […] Ciprofloxacin was used as antibiotic control. The plate was then incubated at 37 °C. MICs were obtained from three identical readings of four independent experiments.

E. coli D21 = test: microbe, parasite or virus in culture; format: cell-based
Procedure: as §2

P. aeruginosa PAO1 = test: microbe, parasite or virus in culture; format: cell-based
Procedure: as §2

B. megaterium BM11 = test: microbe, parasite or virus in culture; format: cell-based
Procedure: as §2

S. agalactiae ATCC 27591 = test: microbe, parasite or virus in culture; format: cell-based
Procedure: as §2

E. faecalis ATCC 29212 = test: microbe, parasite or virus in culture; format: cell-based
Procedure: as §2

[2] = system: S. epidermidis ATCC 12228; test: microbe, parasite or virus in culture; format: cell-based
Procedure: as §2

S. aureus ATCC 25923 = test: microbe, parasite or virus in culture; format: cell-based
Procedure: as §2

E. coli ATCC 25922 = test: microbe, parasite or virus in culture; format: cell-based
Procedure: as §2

P. aeruginosa ATCC 27853 = test: microbe, parasite or virus in culture; format: cell-based
Procedure: as §2

[3] = system: human keratinocytes (HaCaT cells); format: cell-based
Procedure: as §1

Structure (SMILES)	MIC (A. baumannii ATCC 19606; ATCC 19606) [µM]	MIC (E. coli D21; D21) [µM]	MIC (B. megaterium BM11; BM11) [µM]	MIC (S. agalactiae ATCC 27591; ATCC 27591) [µM]	MIC (E. faecalis ATCC 29212; ATCC 29212) [µM]	MIC ([2]; ATCC 12228) [µM]	MIC (S. aureus ATCC 25923; ATCC 25923) [µM]	MIC (E. coli ATCC 25922; ATCC 25922) [µM]	helicity (circular dichroism) [%]	viability at 2 h, 3.12 µM [1] [%]	viability at 2 h, 6.25 µM [1] [%]	viability at 2 h, 12.5 µM [1] [%]	viability at 2 h, 25 µM [1] [%]	viability at 2 h, 50 µM [1] [%]	viability at 2 h, 100 µM [1] [%]	viability at 24 h, 3.12 µM [1] [%]	viability at 24 h, 6.25 µM [1] [%]	viability at 24 h, 12.5 µM [1] [%]	viability at 24 h, 25 µM [1] [%]	viability at 24 h, 100 µM [1] [%]	also measured
CC[C@H](C)[C@H](NC(=O)[C@H](CCCNC(=N)N)NC(=O)[C@H]1CCC(=O)NCCCC[C@H](NC(=O)[C@H](Cc2ccccc2)NC(=O)[C@H](Cc2c[nH]c3ccccc23)NC(=O)[C@@H]2CCCN2C(=O)[C@@H](NC(=O)[C@H](Cc2ccccc2)NC(=O)CCNC(=N)N)C(C)C)C(=O)N[C@@H](CCCCN)C(=O)N[C@@H](Cc2ccccc2)C(=O)N[C@H](CC(C)C)C(=O)N1)C(=O)N[C@@H](CC(C)C)C(N)=O [Peptide 4, guanidino-βAla-FVPWF[KKFle]RIL] ({Propanoyl(3-guanidino)}-FVPWFKKF[dL][dE]RIL-NH2; lactam 6-10)	3.12	6.25	0.78	1.56	6.25	1.56	3.12	3.12	12	100	100	100	47	7	8	98 ± 1	93 ± 2	88 ± 4	21 ± 3	0	CC50 at 24 h [1]: 19.4 µM; viability at 24 h, 50 µM [1]: 0%; MIC (P. aeruginosa PAO1; PAO1): 25 µM; MIC (P. aeruginosa ATCC 27853; ATCC 27853): 25 µM
CC[C@H](C)[C@H](NC(=O)[C@H](CCCNC(=N)N)NC(=O)[C@@H]1CCCNC(=N)NCCC[C@H](NC(=O)[C@H](Cc2ccccc2)NC(=O)[C@H](Cc2c[nH]c3ccccc23)NC(=O)[C@@H]2CCCN2C(=O)[C@@H](NC(=O)[C@@H](N)Cc2ccccc2)C(C)C)C(=O)N[C@@H](CCCCN)C(=O)N[C@@H](Cc2ccccc2)C(=O)N[C@H](CC(C)C)C(=O)N1)C(=O)N[C@@H](CC(C)C)C(N)=O [Peptide 13, FVPWF{OrnKFlOrn}RIL]	1.56	6.25	0.39	1.56	6.25	1.56	6.25	6.25	10	107	104	76	31	7	2	103 ± 2	103 ± 3	97 ± 2	22 ± 2	3 ± 1	cytotoxicity (in words) [3]: Low cytotoxicity (up to 25 μM); CC50 at 24 h [1]: 19.7 µM; viability at 24 h, 50 µM [1]: 2 ± 1%; MIC (P. aeruginosa ATCC 27853; ATCC 27853): 50 µM
O=C(O)c1cn(C2CC2)c2cc(N3CCNCC3)c(F)cc2c1=O [Ciprofloxacin, reference compound]	–	–	–	–	–	–	–	–	–	–	–	–	–	–	–	–	–	–	–	–	MIC (A. baumannii ATCC 19606; Acinetobacter baumannii, ATCC19606, A. baumannii ATCC 19606, antibiotic control, read-out: MIC): 1 µg/mL; MIC (E. coli D21; Escherichia coli, E. coli D21, antibiotic control, read-out: MIC): 0.01 µg/mL; MIC (P. aeruginosa PAO1; Pseudomonas aeruginosa, P. aeruginosa PAO1, antibiotic control, read-out: MIC): 0.12 µg/mL; MIC (B. megaterium BM11; Priestia megaterium, B. megaterium BM11, antibiotic control, read-out: MIC): 0.12 µg/mL; MIC (S. agalactiae ATCC 27591; Streptococcus agalactiae, ATCC27591, S. agalactiae ATCC 27591, antibiotic control, read-out: MIC): 0.5 µg/mL; MIC (E. faecalis ATCC 29212; Enterococcus faecalis, ATCC29212, E. faecalis ATCC 29212, antibiotic control, read-out: MIC): 0.5 µg/mL; MIC ([2]; Staphylococcus epidermidis, ATCC12228, S. epidermidis ATCC 12228, antibiotic control, read-out: MIC): 0.25 µg/mL; MIC (S. aureus ATCC 25923; Staphylococcus aureus, ATCC25923, S. aureus ATCC 25923, antibiotic control, read-out: MIC): 0.5 µg/mL; MIC (E. coli ATCC 25922; Escherichia coli, ATCC25922, E. coli ATCC 25922, antibiotic control, read-out: MIC): 0.01 µg/mL; MIC (P. aeruginosa ATCC 27853; Pseudomonas aeruginosa, ATCC27853, P. aeruginosa ATCC 27853, antibiotic control, read-out: MIC): 0.5 µg/mL

Further lines, with some results ahead:

MIC (A. baumannii ATCC 19606; ATCC 19606) [µM]	MIC (E. coli D21; D21) [µM]	MIC (B. megaterium BM11; BM11) [µM]	MIC (S. agalactiae ATCC 27591; ATCC 27591) [µM]	MIC (E. faecalis ATCC 29212; ATCC 29212) [µM]	MIC ([2]; ATCC 12228) [µM]	MIC (S. aureus ATCC 25923; ATCC 25923) [µM]	MIC (E. coli ATCC 25922; ATCC 25922) [µM]	Structure (SMILES)	helicity (circular dichroism) [%]	viability at 2 h, 3.12 µM [1] [%]	viability at 2 h, 6.25 µM [1] [%]	viability at 2 h, 12.5 µM [1] [%]	viability at 2 h, 25 µM [1] [%]	viability at 2 h, 50 µM [1] [%]	viability at 2 h, 100 µM [1] [%]	viability at 24 h, 3.12 µM [1] [%]	viability at 24 h, 6.25 µM [1] [%]	viability at 24 h, 12.5 µM [1] [%]	viability at 24 h, 25 µM [1] [%]	viability at 24 h, 100 µM [1] [%]	also measured
3.12	6.25	0.78	3.12	25	3.12	6.25	6.25	CC[C@H](C)[C@H](NC(=O)[C@H](CCCNC(=N)N)NC(=O)[C@H]1CCC(=O)NCCCC[C@H](NC(=O)[C@H](Cc2ccccc2)NC(=O)[C@H](Cc2c[nH]c3ccccc23)NC(=O)[C@@H]2CCCN2C(=O)[C@@H](NC(=O)[C@H](Cc2ccccc2)NC(=N)N)C(C)C)C(=O)N[C@@H](CCCCN)C(=O)N[C@@H](Cc2ccccc2)C(=O)N[C@H](CC(C)C)C(=O)N1)C(=O)N[C@@H](CC(C)C)C(N)=O [Peptide 3, guanidino-FVPWF[KKFle]RIL] (X1-VPWFKKF[dL][dE]RIL-NH2; lactam 5-9)	1	126	137	125	104	52	5	93 ± 9	105 ± 2	107 ± 8	86 ± 5	4 ± 1	CC50 at 24 h [1]: 38.6 µM; viability at 24 h, 50 µM [1]: 29 ± 2%; MIC (P. aeruginosa PAO1; PAO1): 50 µM; MIC (P. aeruginosa ATCC 27853; ATCC 27853): 100 µM
6.25	6.25	0.78	6.25	50	12.5	100	6.25	CC[C@H](C)[C@H](NC(=O)[C@H](CCCNC(=N)N)NC(=O)[C@H]1CCC(=O)NCCCC[C@H](NC(=O)[C@H](Cc2ccccc2)NC(=O)[C@H](Cc2c[nH]c3ccccc23)NC(=O)[C@@H]2CCCN2C(=O)[C@@H](NC(=O)[C@@H](N)Cc2ccccc2)C(C)C)C(=O)N[C@@H](CCCCN)C(=O)N[C@@H](Cc2ccc(NC(=N)N)cc2)C(=O)N[C@H](CC(C)C)C(=O)N1)C(=O)N[C@@H](CC(C)C)C(N)=O [Peptide 10, FVPWF[KK(p-guanidino)Fle]RIL] (H-FVPWFKK[Phe(4-guanidino)][dL][dE]RIL-NH2; lactam 6-10)	3	105	110	112	112	101	82	98 ± 3	104 ± 2	103 ± 3	106 ± 3	95 ± 6	viability at 24 h, 50 µM [1]: 116 ± 5%; MIC (P. aeruginosa PAO1; PAO1): 25 µM; MIC (P. aeruginosa ATCC 27853; ATCC 27853): 50 µM
6.25	6.25	0.78	3.12	25	6.25	25	12.5	CC[C@H](C)[C@H](NC(=O)[C@H](CCCNC(=N)N)NC(=O)[C@H]1CCC(=O)NCCCC[C@H](NC(=O)[C@H](Cc2ccc(NC(=N)N)cc2)NC(=O)[C@H](Cc2c[nH]c3ccccc23)NC(=O)[C@@H]2CCCN2C(=O)[C@@H](NC(=O)[C@@H](N)Cc2ccccc2)C(C)C)C(=O)N[C@@H](CCCCN)C(=O)N[C@@H](Cc2ccccc2)C(=O)N[C@H](CC(C)C)C(=O)N1)C(=O)N[C@@H](CC(C)C)C(N)=O [Peptide 8, FVPW(p-guanidino)F[KKFle]RIL] (H-FVPW[Phe(4-guanidino)]KKF[dL][dE]RIL-NH2; lactam 6-10)	7	111	112	115	110	92	63	101 ± 4	105 ± 6	110 ± 3	124 ± 1	58 ± 9	MIC (P. aeruginosa PAO1; PAO1): 25 µM; MIC (P. aeruginosa ATCC 27853; ATCC 27853): 50 µM
